The test system of test [1] is ACE2–RBD interaction (Omicron variant RBD-Fc / His-tagged hACE2). Format: biochemical, SARS-CoV-2. The conditions noted are these: read-out: Inhibition of ACE2–RBD Interaction.
The subject of test [2] is SIV pseudotyped with the SARS-CoV-2 spike protein (Beta). As to conditions: SIV pseudotyped with the spike protein (Beta, 48 h).
The test system of test [3] is SIV pseudotyped with the SARS-CoV-2 spike protein (wt). As to conditions: SIV pseudotyped with the spike protein (wt, 48 h).
The subject of test [4] is SIV pseudotyped with the SARS-CoV-2 spike protein (Delta). As to conditions: SIV pseudotyped with the spike protein (Delta, 48 h).
Test [5] deals with SIV pseudotyped with the SARS-CoV-2 spike protein (Omicron). As to conditions: SIV pseudotyped with the spike protein (Omicron, 48 h).
Test [6] concerns SIV pseudotyped with the SARS-CoV-2 spike protein (Alpha). The conditions noted are these: SIV pseudotyped with the spike protein (Alpha, 48 h).
Test [7] relates to pseudovirus with wt SARS-CoV-2 spike carrying K417N.
The subject of test [8] is pseudovirus with wt SARS-CoV-2 spike carrying E484K + N501Y.

As for `CC[C@H](C)[C@H](NC(=O)[C@H](CC(C)C)NC(=O)[C@H](CC(=O)O)NC(=O)[C@H](CO)NC(=O)[C@@H](NC(=O)[C@H](CCCNC(=N)N)NC(=O)[C@H](CCSC)NC(=O)[C@H](CO)NC(=O)[C@H](C)NC(=O)[C@H](CCC(=O)O)NC(=O)[C@H](C)NC(=O)[C@H](Cc1c[nH]cn1)NC(=O)CNC(=O)[C@H](CC(C)C)NC(=O)[C@H](CCC(=O)O)NC(=O)[C@H](CC(=O)O)NC(=O)[C@H](CC(C)C)NC(=O)[C@H](CC(C)C)NC(=O)[C@H](CCCNC(=N)N)NC(=O)[C@H](CCSC)NC(=O)[C@@H](NC(=O)[C@H](CCC(=O)O)NC(=O)[C@H](Cc1ccc(O)cc1)NC(=O)[C@@H](NC(=O)[C@H](CCCCN)NC(=O)[C@H](CCC(N)=O)NC(=O)[C@H](CC(C)C)NC(=O)[C@@H](NC(=O)[C@H](Cc1c[nH]c2ccccc12)NC(=O)[C@H](CCC(=O)O)NC(=O)[C@H](CCCCN)NC(=O)[C@H](CC(=O)O)NC(=O)COCCOCCNC(=O)CCCC[C@@H]1SC[C@@H]2NC(=O)N[C@@H]21)[C@@H](C)CC)[C@@H](C)CC)[C@@H](C)CC)C(C)C)C(=O)N[C@@H](Cc1ccc(O)cc1)C(=O)N[C@@H](CCC(=O)O)C(=O)N[C@@H](Cc1ccccc1)C(=O)N[C@@H](CCSC)C(=O)N[C@@H](CCCCN)C(=O)N[C@@H](CCCCN)C(=O)NCC(N)=O` [LW25.1], the IC50 in test [1] was […]; in test [2], over 500 nM; in test [3], 1.7 ± 0.11 nM; in test [4], 0.71 ± 0.23 nM; in test [5], over 500 nM; in test [6], 8.38 ± 3.31 nM.

For the molecule `CC[C@H](C)[C@H](NC(=O)[C@H](CC(C)C)NC(=O)[C@H](CC(=O)O)NC(=O)[C@H](CO)NC(=O)[C@@H](NC(=O)[C@H](CCCNC(=N)N)NC(=O)[C@H](CCSC)NC(=O)[C@H](CO)NC(=O)[C@H](C)NC(=O)[C@H](CCC(=O)O)NC(=O)[C@H](C)NC(=O)[C@H](Cc1c[nH]cn1)NC(=O)CNC(=O)[C@H](CC(C)C)NC(=O)[C@H](CCC(=O)O)NC(=O)[C@H](CC(=O)O)NC(=O)[C@H](CC(C)C)NC(=O)[C@H](CC(C)C)NC(=O)[C@H](CCCNC(=N)N)NC(=O)[C@H](CCSC)NC(=O)[C@@H](NC(=O)[C@H](CCC(=O)O)NC(=O)[C@H](Cc1ccc(O)cc1)NC(=O)[C@@H](NC(=O)[C@H](CCCCN)NC(=O)[C@H](CCC(N)=O)NC(=O)[C@H](CC(C)C)NC(=O)[C@@H](NC(=O)[C@H](Cc1c[nH]c2ccccc12)NC(=O)[C@H](CCC(=O)O)NC(=O)[C@H](CCCCN)NC(=O)[C@H](CC(=O)O)NC(=O)COCCOCCNC(=O)CCCC[C@@H]1SC[C@@H]2NC(=O)N[C@@H]21)[C@@H](C)CC)[C@@H](C)CC)[C@@H](C)CC)C(C)C)C(=O)N[C@@H](Cc1ccc(O)cc1)C(=O)N[C@@H](CCC(=O)O)C(=O)N[C@@H](Cc1ccccc1)C(=O)N[C@@H](CCSC)C(=O)N[C@@H](CCCCN)C(N)=O` [LW32.2], the IC50 was […] in test [1]; over 500 nM in test [2]; 0.93 ± 0.24 nM in test [3]; 1.54 ± 0.23 nM in test [4]; over 500 nM in test [5]; 6.15 ± 5.96 nM in test [6]. Besides, the “Decrease of susceptibility of the virus to inhibition by mutation K417N, factor” value in test [7] is 25. Besides, the “Reduction in inhibitory activity (virus neutralization) by combination of E484K and N501N” value in test [8] is reported as “nine”.

Regarding `CC[C@H](C)[C@H](NC(=O)[C@H](CC(C)C)NC(=O)[C@H](CC(=O)O)NC(=O)[C@H](CO)NC(=O)[C@@H](NC(=O)[C@H](CCCNC(=N)N)NC(=O)[C@H](CCSC)NC(=O)[C@H](CO)NC(=O)[C@H](C)NC(=O)[C@H](CCC(=O)O)NC(=O)[C@H](C)NC(=O)[C@H](Cc1c[nH]cn1)NC(=O)CNC(=O)[C@H](CC(C)C)NC(=O)[C@H](CCC(=O)O)NC(=O)[C@H](CC(=O)O)NC(=O)[C@H](CC(C)C)NC(=O)[C@H](CC(C)C)NC(=O)[C@H](CCCNC(=N)N)NC(=O)[C@H](CCSC)NC(=O)[C@@H](NC(=O)[C@H](CCC(=O)O)NC(=O)[C@H](Cc1ccc(O)cc1)NC(=O)[C@@H](NC(=O)[C@H](CCCCN)NC(=O)[C@H](CCC(N)=O)NC(=O)[C@H](CC(C)C)NC(=O)[C@@H](NC(=O)[C@H](Cc1c[nH]c2ccccc12)NC(=O)[C@H](CCC(=O)O)NC(=O)[C@H](CCCCN)NC(=O)[C@H](CC(=O)O)NC(=O)COCCOCCNC(=O)COCCOCCNC(=O)CCCC[C@@H]1SC[C@@H]2NC(=O)N[C@@H]21)[C@@H](C)CC)[C@@H](C)CC)[C@@H](C)CC)C(C)C)C(=O)N[C@@H](Cc1ccc(O)cc1)C(=O)N[C@@H](CCC(=O)O)C(=O)N[C@@H](Cc1ccccc1)C(=O)N[C@@H](CCSC)C(=O)N[C@@H](CCCCN)C(=O)N[C@@H](CCCCN)C(=O)NCC(=O)N[C@@H](CC(=O)O)C(=O)N[C@@H](CCC(=O)O)C(=O)N[C@@H](CCCNC(=N)N)C(=O)N[C@@H](CC(C)C)C(=O)N[C@@H](CC(C)C)C(=O)N[C@@H](CCC(=O)O)C(=O)N[C@@H](CCC(=O)O)C(=O)N[C@@H](C)C(=O)N[C@@H](CCC(=O)O)C(=O)N[C@@H](CCCNC(=N)N)C(=O)N[C@@H](CC(C)C)C(=O)N[C@@H](CC(C)C)C(=O)N[C@@H](CCC(=O)O)C(=O)N[C@@H](CCC(=O)O)C(=O)N[C@H](C(=O)N[C@@H](CCC(=O)O)C(N)=O)C(C)C` [LW25.3], the IC50 in test [2] was over 500 nM; in test [3] it was 5.94 ± 4.17 nM; in test [4] it was 4.52 ± 0.43 nM; in test [5] it was over 500 nM; in test [6], 13.3 ± 4.55 nM.

For `CC[C@H](C)[C@@H]1NC(=O)[C@H](CC(C)C)NC(=O)[C@H](CC(=O)O)NC(=O)[C@H](CO)NC(=O)[C@H](C(C)C)NC(=O)[C@H](CCCNC(=N)N)NC(=O)[C@H](CCSC)NC(=O)[C@H](CO)NC(=O)[C@H](C)NC(=O)[C@H](CCC(=O)O)NC(=O)[C@H](C)NC(=O)[C@H](Cc2c[nH]cn2)NC(=O)CNC(=O)[C@H](CC(C)C)NC(=O)[C@H](CCC(=O)O)NC(=O)[C@H](CC(=O)O)NC(=O)[C@H](CC(C)C)NC(=O)[C@H](CC(C)C)NC(=O)[C@H](CCCNC(=N)N)NC(=O)[C@H](CCSC)NC(=O)[C@H]([C@@H](C)CC)NC(=O)[C@H](CCC(=O)O)NC(=O)[C@H](Cc2ccc(O)cc2)NC(=O)[C@H]([C@@H](C)CC)NC(=O)[C@H](CCCCN)NC(=O)[C@H](CCC(N)=O)NC(=O)[C@H](CC(C)C)NC(=O)[C@H]([C@@H](C)CC)NC(=O)[C@H](Cc2c[nH]c3ccccc23)NC(=O)[C@H](CCC(=O)O)NC(=O)[C@@H](NC(=O)COCCOCCNC(=O)CCCC[C@@H]2SC[C@@H]3NC(=O)N[C@@H]32)CSSC[C@@H](C(N)=O)NC(=O)[C@H](CCCCN)NC(=O)[C@H](CCCCN)NC(=O)[C@H](CCSC)NC(=O)[C@H](Cc2ccccc2)NC(=O)[C@H](CCC(=O)O)NC(=O)[C@H](Cc2ccc(O)cc2)NC1=O` [LW25.13], the IC50 in test [1] is […]; in test [2] it was over 500 nM; in test [3], 0.63 ± 0.24 nM; in test [4] it was 0.68 ± 0.12 nM; in test [5] it was over 500 nM; in test [6], 1.35 ± 0.08 nM. Further, the “Reduction in inhibitory activity (virus neutralization) by combination of E484K and N501N” value in test [8] is “approximately three”.

As for `CC[C@H](C)[C@H](NC(=O)[C@H](CC(C)C)NC(=O)[C@H](CC(=O)O)NC(=O)[C@H](CO)NC(=O)[C@@H](NC(=O)[C@H](CCCNC(=N)N)NC(=O)[C@H](CCSC)NC(=O)[C@H](CO)NC(=O)[C@H](C)NC(=O)[C@H](CCC(=O)O)NC(=O)[C@H](C)NC(=O)[C@H](Cc1c[nH]cn1)NC(=O)CNC(=O)[C@H](CC(C)C)NC(=O)[C@H](CCC(=O)O)NC(=O)[C@H](CC(=O)O)NC(=O)[C@H](CC(C)C)NC(=O)[C@H](CC(C)C)NC(=O)[C@H](CCCNC(=N)N)NC(=O)[C@H](CCSC)NC(=O)[C@@H](NC(=O)[C@H](CCC(=O)O)NC(=O)[C@H](Cc1ccc(O)cc1)NC(=O)[C@@H](NC(=O)[C@H](CCCCN)NC(=O)[C@H](CCC(N)=O)NC(=O)[C@H](CC(C)C)NC(=O)[C@@H](NC(=O)[C@H](Cc1c[nH]c2ccccc12)NC(=O)[C@H](CCC(=O)O)NC(=O)[C@H](CCCCN)NC(=O)[C@H](CC(=O)O)NC(=O)COCCOCCNC(=O)CCCC[C@@H]1SC[C@@H]2NC(=O)N[C@@H]21)[C@@H](C)CC)[C@@H](C)CC)[C@@H](C)CC)C(C)C)C(=O)N[C@@H](Cc1ccc(O)cc1)C(=O)N[C@@H](CCC(=O)O)C(=O)N[C@@H](Cc1ccccc1)C(N)=O` [LW32.4], the IC50 in test [1] was […]; in test [2], over 500 nM; in test [3], 11.8 ± 3.5 nM; in test [4], 10.2 ± 1.78 nM; in test [5], over 500 nM; in test [6], over 500 nM.

(Values after PMC9181698 (International Journal of Molecular Sciences, 2022).)
